Measurements reported in US20110093959A1, “CRYPTOTIS PARVA SCREENING MODEL FOR ANTIEMETIC POTENTIAL” (priority 2008, published 2011).

Columns and labels:
Format in all cases: in vivo, Cryptotis parva
[1] = system: SP-induced emesis in the Least Shrew; experiment: Antagonist interaction study against SP (50 mg/kg, i.p.)-induced emesis; settings: antagonist 10 mg/kg i.p., 30 min before SP 50 mg/kg i.p.
Source text: The present protocols were based upon preliminary studies as well as published findings in the Least Shrew. Darmani, 2001a; Darmani et al., 69 Pharmacol. Biochem. Behay. 239-49 (2001b). On the test day, the shrews were allowed to acclimate to the test laboratory for at least one hour prior to experimentation. To habituate the animals to the test environment, each shrew was randomly selected and transferred to a 20 cm×18 cm×21 cm clean clear plastic cage and offered four mealworms (Tenebrio sp.) 30 min prior to experimentation. […]
For the above drug interaction studies, different doses (i.p.) of either CP99,994 (0, 5, 10, and 20 mg/kg, n=10-14 shrews per group); L733060 (0, 5, 10, and 20 mg/kg, n=10-14 shrews per group), GR159897 (0 mg/kg and 20 mg/kg, n=8 per group) or SB218795 (0 or 20 mg/kg, n=7-8 per group) were administered to different groups of shrews 30 min prior to injection of an emetic dose (5 mg/kg, i.p.) of the NK1-receptor agonist GR73632. Emesis and scratchings were recorded for 30 min immediately following GR73632 administration as described above. […]
The data on the frequency of emesis and scratchings were analyzed by the Kruskal-Wallis (KW) nonparametric one-way analysis of variance (ANOVA) and post hoc analysis by Dunn's multiple comparisons test or Mann-Whitney test. […]

[2] = system: GR73632-induced emesis and scratching in the Least Shrew; experiment: Antagonist interaction study against GR73632 (5 mg/kg, i.p.)-induced emesis and scratching
Source text: The present protocols were based upon preliminary studies as well as published findings in the Least Shrew. Darmani, 2001a; Darmani et al., 69 Pharmacol. Biochem. Behay. 239-49 (2001b). On the test day, the shrews were allowed to acclimate to the test laboratory for at least one hour prior to experimentation. To habituate the animals to the test environment, each shrew was randomly selected and transferred to a 20 cm×18 cm×21 cm clean clear plastic cage and offered four mealworms (Tenebrio sp.) 30 min prior to experimentation.
The latter doses of SP and GR73632 were chosen for subsequent antagonist interaction studies to pharmacologically characterize the role of NK1 receptors in the mediation of induced emesis by the use of: (1) two selective neurokinin NK1 receptor antagonists (CP99,994 and L733060) (Watson et al., 115 Br. J. Phramacol. 84-94 (1995); Guiard et al., 89 J. Neurochem. 54-63 (2004)); (2) an NK2 receptor antagonist (GR159897) (Beresford et al., 272 Eur. J. Pharmacol. 241-48 (1995)); and (3) an NK3 receptor antagonist (SB218795) (Salthun-Lassalle et al., 1995).
For the above drug interaction studies, different doses (i.p.) of either CP99,994 (0, 5, 10, and 20 mg/kg, n=10-14 shrews per group); L733060 (0, 5, 10, and 20 mg/kg, n=10-14 shrews per group), GR159897 (0 mg/kg and 20 mg/kg, n=8 per group) or SB218795 (0 or 20 mg/kg, n=7-8 per group) were administered to different groups of shrews 30 min prior to injection of an emetic dose (5 mg/kg, i.p.) of the NK1-receptor agonist GR73632. Emesis and scratchings were recorded for 30 min immediately following GR73632 administration as described above. The antiemetic effect of CP99,994 (0, 5, and 10 mg/kg, n=9-10 animals per group) was also investigated in a similar manner against SP (50 mg/kg, i.p.)-induced emesis.
The data on the frequency of emesis and scratchings were analyzed by the Kruskal-Wallis (KW) nonparametric one-way analysis of variance (ANOVA) and post hoc analysis by Dunn's multiple comparisons test or Mann-Whitney test. A P value of <0.05 was necessary to attain statistical significance. The incidence of emesis (number of shrews vomiting) was analyzed by the Fisher's exact test to determine whether there were differences between groups. When appropriate, pairwise comparisons were also made by this method. Two-way analysis of variance using the Kruskal-Wallis or Fisher's exact tests were initially utilized to respectively analyze the dose-response results of GR73632 on emesis and scratching behaviors, and percentage of shrews vomiting in saporin- and corresponding saline-pretreated control shrews. […] For some emesis data, the two-tailed Mann-Whitney test was used. The SP tissue concentration data were analyzed by a one-way ANOVA followed by Dunnett's t test as post hoc analysis. Fos-IR was quantified by counting immunopositive nuclei within each hemisection containing the region of interest (ROI). The number of nuclei was averaged across sections with the ROI for each animal, and the group mean and standard error obtained.

[3] = system: LTC4-induced emesis in the Least Shrew; experiment: CysLT1 antagonists against leukotriene LTC4-induced emesis; settings: dose-dependent
Description: Emetic parameters were recorded for 30min post emetic injection.

Row | SMILES | attenuation of the frequency of SP-induced emesis [1] [%] | shrews protected from SP-induced emesis [1] [%] | reduction in frequency of GR73632-induced emesis ([2]; antagonist 5 mg/kg i.p.) [%] | reduction in percentage of shrews vomiting in response to GR73632 ([2]; antagonist 5 mg/kg i.p.) [%] | reduction in frequency of GR73632-induced emesis ([2]; antagonist 10 mg/kg i.p.) [%] | reduction in percentage of shrews vomiting in response to GR73632 ([2]; antagonist 10 mg/kg i.p.) [%] | reduction in frequency of GR73632-induced emesis ([2]; antagonist 20 mg/kg i.p.) [%] | reduction in percentage of shrews vomiting in response to GR73632 ([2]; antagonist 20 mg/kg i.p.) [%] | reduction in the frequency of scratching ([2]; antagonist 5, 10, and 20 mg/kg, failed to attain significance) | onset of first emesis induced by GR73632 ([2]; at highest tested effective antiemetic doses) | prevention of LTC4-induced emesis [3]
1 | COc1ccccc1CN[C@H]1CCCN[C@H]1c1ccccc1 (relative stereo) [CP99,994, (2S, 3S)-Cis-3 (2-methoxybenzylamino-2-phenylpiperidine)] | 84 | 70 | 61 | 2.9 | 87 | 60 | 97 | 73 | up to 49% | only delayed the onset of first emesis | –
2 | O=C(Nc1cccc2c(=O)cc(-c3nnn[nH]3)oc12)c1ccc(OCCCCc2ccccc2)cc1 [Pranlucast, 4-Oxo-8-[(4-phenylbutoxy)benzoylamino]-2-(tetrazol-5-yl)-4H-1-benzopyran] | – | – | – | – | – | – | – | – | – | – | prevent LTC4-induced emesis completely
3 | COc1cc(C(=O)NS(=O)(=O)c2ccccc2C)ccc1Cc1cn(C)c2ccc(NC(=O)OC3CCCC3)cc12 [zafirlucast] | – | – | – | – | – | – | – | – | – | – | prevent LTC4-induced emesis completely
